Results taken from patent publication US20130225609A1, “COMBINATIONS OF MEDICAMENTS, CONTAINING PDE4-INHIBITORS AND EP4-RECEPTOR-ANTAGONISTS” (BOEHRINGER INGELHEIM INTERNATIONAL GMBH, priority 2010, published 2013).

What was measured:
[1] = Experiment 3: EP4 antagonist MF498 and roflumilast-mediated side effects in rats; assay type: in vivo, male Wistar rats; conditions: four days
Experimental: Six male Wistar rats were given a daily dosage of 0.5% Natrosol (Placebo) at 1300 hours.
Six male Wistar rats were given a daily dosage of 20 mg/kg MF-498 (EP4 antagonist) in each case at 1300 hours.
Six male Wistar rats were given a daily dosage of 10 mg/kg Roflumilast (PDE4 inhibitor) at 1300 hours.

[2] = Experiment 4: EP2-preferential antagonist AH6809 and roflumilast-mediated side effects in rats; assay type: in vivo, male Wistar rats; conditions: four days
Experimental: Six male Wistar rats were given a daily dosage of 10 mg/kg AH-6809 (preferential EP2 antagonist) at 1300 hours. Six male Wistar rats were given a daily dosage of 10 mg/kg Roflumilast (PDE4 inhibitor) at 1300 hours.

[3] = Experiment 1: diclofenac and roflumilast-mediated side effects in rats
Experimental: Six male Wistar rats in each group were treated for four days with the following substances (all substances are given p.o.=orally):
Group 1 (“Control Group”):
Six male Wistar rats were given a daily dose of 0.5% Natrosol (placebo) at the times 0800, 1300 and 1700 hours.
Group 2 (“Diclofenac Group”):
Six male Wistar rats were given a daily dose of 1 mg/kg of diclofenac (NSAID) at the times 0800 and 1700 hours and 0.5% Natrosol (placebo) at 1300 hours.
Group 3 (“Roflumilast Group”):
Six male Wistar rats were given a daily dose of 0.5% Natrosol (placebo) at 0800 and 1700 hours and 10 mg/kg roflumilast (PDE4 inhibitor) at 1300 hours.
Group 4 (“Roflumilast+Diclofenac Group”):
Six male Wistar rats were given a daily dose of 1 mg/kg diclofenac (NSAID) at the times 0800 and 1700 hours and 10 mg/kg roflumilast (PDE4 inhibitor) at 1300 hours.
For pharmacokinetic analysis (determining the plasma levels of the substances) on day 4 one rat from each group was used; these rats were no longer available for other parameters under investigation.
During the experiment the body weights of the animals were determined and the differences in the body weights of the rats from the different groups towards the end of the experiment were shown as a percentage change from the time of the first administration (=day 1, 0800 hours (=time t0)). The average±standard deviation of the body weights at time t0 was 355±17 g.
At the end of the experiment (day 5, 95 hours after t0 (=the time of the first administration on day 1, 0800)) the proportion of neutrophils (in % of white blood cells, FIG. 2) were determined from the blood of 4 or 5 of the rats from the individual groups. In addition, the weights of the animals' spleens were measured and the mesenteries were dissected for histopathological investigation for vasculitis (multifocal perivascular mononuclear/polymorphonuclear infiltration).

[4] = Experiment 2: Lumiracoxib (COX-2 selective) / SC-560 (COX-1 selective) and roflumilast-mediated side effects in rats; assay type: in vivo, male Wistar rats; conditions: four days
Excerpt: Six male Wistar rats were given a daily dosage of 0.5%
For pharmacokinetic analysis (determining plasma levels of the substances) one rat from each group was used on day 4; these rats were no longer available for the investigation of other parameters.

[5] = Roflumilast group: 10 mg/kg roflumilast p.o. daily
[6] = 10 mg/kg p.o. + 10 mg/kg roflumilast p.o. at 1300 hours
[7] = 20 mg/kg p.o. + 10 mg/kg roflumilast p.o. at 1300 hours
[8] = 2 mg/kg p.o. at 0800 and 1700 hours + 10 mg/kg roflumilast p.o. at 1300 hours
[9] = 1 mg/kg p.o. at 0800 and 1700 hours + 10 mg/kg roflumilast p.o. at 1300 hours, four days

SMILES: O=C(Nc1c(Cl)cncc1Cl)c1ccc(OC(F)F)c(OCC2CC2)c1 [Roflumilast]
- loss of body weight (FIG. 9) [1, 5]: observed
- loss of spleen weight (FIG. 10) [1, 5]: observed
- mesenteric vasculitis (monocyte/polymorphonuclear perivascular infiltration into the mesentery, FIG. 12) [1, 5]: observed
- neutrophilia (FIG. 11) [1, 5]: observed
- loss of body weight (FIG. 13) [2, 5]: observed
- loss of spleen weight (FIG. 14) [2, 5]: observed
- mesenteric vasculitis (monocyte/polymorphonuclear perivascular infiltration in the mesentery, FIG. 16) [2, 5]: observed
- neutrophilia (FIG. 15) [2, 5]: observed
- death of animals ([3]; Roflumilast group: 10 mg/kg p.o. daily, six rats per group): one rat from the roflumilast group which died between day 4 and day 5
- loss of body weight (FIG. 5) [4, 5]: observed
- loss of spleen weight (FIG. 6) [4, 5]: observed
- mesenteric vasculitis (monocyte/polymorphonuclear perivascular infiltration into the mesentery, FIG. 8) [4, 5]: observed
- neutrophilia (FIG. 7) [4, 5]: observed

SMILES: CC(C)Oc1ccc2c(=O)c3cc(C(=O)O)ccc3oc2c1 [AH6809, 6-isopropoxy-9-oxoxanthene-2-carboxylic acid]
- effect of co-administration on roflumilast-mediated loss of body weight (FIG. 13) [2, 6]: no indications that the EP2 preferential receptor antagonist AH-809 had any influence
- effect of co-administration on roflumilast-mediated loss of spleen weight (FIG. 14) [2, 6]: no indications that the EP2 preferential receptor antagonist AH-809 had any influence
- effect of co-administration on roflumilast-mediated mesenteric vasculitis (FIG. 16) [2, 6]: no indications that the EP2 preferential receptor antagonist AH-809 had any influence
- effect of co-administration on roflumilast-mediated neutrophilia (FIG. 15) [2, 6]: no indications that the EP2 preferential receptor antagonist AH-809 had any influence
- effect of EP2 blockage on the parameters measured (roflumilast-mediated side effects, overall) ([2]; 10 mg/kg p.o. + 10 mg/kg roflumilast p.o.): shows no effect on the parameters measured
- parameters measured after administration on its own (body weight, spleen weight, neutrophils, vasculitis) ([2]; 10 mg/kg p.o. daily, without roflumilast): very similar to the control group

SMILES: CCOc1c2c(c(OCC)c3ncccc13)CN(c1ccc(CS(=O)(=O)NC(=O)Cc3ccccc3OC)cc1C)C2=O [MF-498, N-{[4-(5,9-diethoxy-6-oxo-6,8-dihydro-7H-pyrrolo[3,4-g]quinolin-7-yl)-3-methylbenzyl]sulphonyl}-2-(2-methoxyphenyl)acetamide]
- effect of co-administration on roflumilast-mediated loss of body weight (FIG. 9) [1, 7]: substantially reduced
- effect of co-administration on roflumilast-mediated loss of spleen weight (FIG. 10) [1, 7]: substantially reduced
- effect of co-administration on roflumilast-mediated mesenteric vasculitis (FIG. 12) [1, 7]: substantially reduced
- effect of co-administration on roflumilast-mediated neutrophilia (FIG. 11) [1, 7]: substantially reduced
- differences in the weight of the spleen between the Roflumilast group and the Roflumilast+MF-498 group (statistics) ([1]; 20 mg/kg p.o. + 10 mg/kg roflumilast p.o., two-way analysis of variance): do not achieve statistical significance
- parameters measured after administration on its own (body weight, spleen weight, neutrophils, vasculitis) ([1]; 20 mg/kg p.o. daily, without roflumilast): very similar to the control group

SMILES: Cc1ccc(Nc2c(F)cccc2Cl)c(CC(=O)O)c1 [Lumiracoxib]
- effect of co-administration on roflumilast-mediated loss of body weight (FIG. 5) [4, 8]: substantially reduced or prevented
- effect of co-administration on roflumilast-mediated loss of spleen weight (FIG. 6) [4, 8]: substantially reduced or prevented
- effect of co-administration on roflumilast-mediated mesenteric vasculitis (FIG. 8) [4, 8]: substantially reduced or prevented
- effect of co-administration on roflumilast-mediated neutrophilia (FIG. 7) [4, 8]: substantially reduced or prevented
- parameters measured after administration on its own (body weight, spleen weight, neutrophils, vasculitis) ([4]; 2 mg/kg p.o. at 0800 and 1700 hours, without roflumilast): very similar to the control groups

SMILES: O=C(O)Cc1ccccc1Nc1c(Cl)cccc1Cl [diclofenac]
- effect of co-administration on roflumilast-mediated loss of body weight (FIG. 1) [3, 9]: substantially reduced or prevented
- effect of co-administration on roflumilast-mediated loss of spleen weight (FIG. 2) [3, 9]: substantially reduced or prevented
- effect of co-administration on roflumilast-mediated mesenteric vasculitis (FIG. 4) [3, 9]: substantially reduced or prevented
- effect of co-administration on roflumilast-mediated neutrophilia (FIG. 3) [3, 9]: substantially reduced or prevented
- parameters measured after administration on its own (body weight, spleen weight, neutrophils, vasculitis) ([3]; 1 mg/kg p.o. at 0800 and 1700 hours, four days, without roflumilast): very similar to the control groups
